ChEMBL document CHEMBL1201862, “PubChem BioAssay data set” (2004)
Active and inactive are the calls of the source. For most assays here, no stated cut-off is given here; in the data, actives have a measured EC50 and inactives only a lower limit.

Tests used:
[1] = target: T1, Corticotropin-releasing factor receptor 2/Corticotropin-releasing factor-binding protein (Homo sapiens, UniProt P24387+Q13324); assay: Dose Response confirmation of uHTS hits for small molecule antagonists of the CRF-binding protein and CRF-R2 receptor complex.; assay type: functional; conditions: read-out: IC50_Mean
T1 sequence (Q13324 whole entry): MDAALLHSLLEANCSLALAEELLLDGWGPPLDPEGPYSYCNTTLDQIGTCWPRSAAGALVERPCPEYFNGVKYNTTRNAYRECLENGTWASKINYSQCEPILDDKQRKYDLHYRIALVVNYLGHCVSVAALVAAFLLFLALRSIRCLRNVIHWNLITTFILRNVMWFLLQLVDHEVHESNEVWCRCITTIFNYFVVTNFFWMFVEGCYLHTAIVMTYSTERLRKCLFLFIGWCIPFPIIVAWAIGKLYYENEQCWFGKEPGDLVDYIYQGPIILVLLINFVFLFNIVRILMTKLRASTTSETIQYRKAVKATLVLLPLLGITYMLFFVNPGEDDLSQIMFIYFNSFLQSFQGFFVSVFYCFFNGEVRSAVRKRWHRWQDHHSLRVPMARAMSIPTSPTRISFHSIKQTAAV
T1 sequence (P24387 whole entry): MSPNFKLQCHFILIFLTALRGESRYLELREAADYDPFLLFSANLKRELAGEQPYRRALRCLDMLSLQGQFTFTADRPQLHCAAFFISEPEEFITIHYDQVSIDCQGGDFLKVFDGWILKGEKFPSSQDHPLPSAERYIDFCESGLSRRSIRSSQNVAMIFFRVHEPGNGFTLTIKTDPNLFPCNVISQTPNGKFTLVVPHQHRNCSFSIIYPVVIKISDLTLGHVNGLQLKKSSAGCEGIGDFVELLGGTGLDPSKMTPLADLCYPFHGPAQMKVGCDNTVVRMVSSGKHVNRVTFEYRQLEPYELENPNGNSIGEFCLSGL

[2] = target: T1, Corticotropin-releasing factor receptor 2/Corticotropin-releasing factor-binding protein; assay: activators of CRF receptor 2 with binding protein – uHTS hits, confirmation (AID 602473); assay type: functional; conditions: read-out: EC50_Mean
[3] = target: T2, Heat shock factor protein 1 (Mus musculus, UniProt P38532); assay: enhancement of HSF1-driven luciferase signal – cell-based, NIH3T3, luminescence, dose retest, confirmation (AID 435004); assay type: functional;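 further: stress induced by proteasome inhibitor MG132 added 30 min after compound; luciferase reporter driven by HSF1 response element in NIH3T3 cells; actives raise luminescence as potentiators of the MG132 stress response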
T2 sequence (P38532 whole entry): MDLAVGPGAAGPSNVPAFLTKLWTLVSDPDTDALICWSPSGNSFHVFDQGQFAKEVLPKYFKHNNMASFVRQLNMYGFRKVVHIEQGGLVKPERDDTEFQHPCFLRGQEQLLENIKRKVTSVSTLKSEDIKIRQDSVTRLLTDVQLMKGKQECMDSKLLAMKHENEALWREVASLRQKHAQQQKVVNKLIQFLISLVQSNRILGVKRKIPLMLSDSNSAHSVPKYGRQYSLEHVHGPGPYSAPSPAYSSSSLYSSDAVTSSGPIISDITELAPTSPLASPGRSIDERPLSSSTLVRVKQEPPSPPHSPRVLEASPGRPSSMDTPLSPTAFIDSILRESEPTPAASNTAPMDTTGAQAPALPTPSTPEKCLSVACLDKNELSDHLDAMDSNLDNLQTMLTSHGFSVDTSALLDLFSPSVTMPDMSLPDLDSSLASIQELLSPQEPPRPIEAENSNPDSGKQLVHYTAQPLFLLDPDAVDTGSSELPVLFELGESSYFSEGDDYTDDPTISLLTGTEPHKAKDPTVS

[4] = target: T3, Replicative DNA helicase DnaB (Mycobacterium tuberculosis, UniProt P9WMR3); assay: DnaB intein splicing inhibitors, dose response, biochemical, cell-free fluorescence (AID 449749); assay type: functional
T3 sequence (P9WMR3 whole entry): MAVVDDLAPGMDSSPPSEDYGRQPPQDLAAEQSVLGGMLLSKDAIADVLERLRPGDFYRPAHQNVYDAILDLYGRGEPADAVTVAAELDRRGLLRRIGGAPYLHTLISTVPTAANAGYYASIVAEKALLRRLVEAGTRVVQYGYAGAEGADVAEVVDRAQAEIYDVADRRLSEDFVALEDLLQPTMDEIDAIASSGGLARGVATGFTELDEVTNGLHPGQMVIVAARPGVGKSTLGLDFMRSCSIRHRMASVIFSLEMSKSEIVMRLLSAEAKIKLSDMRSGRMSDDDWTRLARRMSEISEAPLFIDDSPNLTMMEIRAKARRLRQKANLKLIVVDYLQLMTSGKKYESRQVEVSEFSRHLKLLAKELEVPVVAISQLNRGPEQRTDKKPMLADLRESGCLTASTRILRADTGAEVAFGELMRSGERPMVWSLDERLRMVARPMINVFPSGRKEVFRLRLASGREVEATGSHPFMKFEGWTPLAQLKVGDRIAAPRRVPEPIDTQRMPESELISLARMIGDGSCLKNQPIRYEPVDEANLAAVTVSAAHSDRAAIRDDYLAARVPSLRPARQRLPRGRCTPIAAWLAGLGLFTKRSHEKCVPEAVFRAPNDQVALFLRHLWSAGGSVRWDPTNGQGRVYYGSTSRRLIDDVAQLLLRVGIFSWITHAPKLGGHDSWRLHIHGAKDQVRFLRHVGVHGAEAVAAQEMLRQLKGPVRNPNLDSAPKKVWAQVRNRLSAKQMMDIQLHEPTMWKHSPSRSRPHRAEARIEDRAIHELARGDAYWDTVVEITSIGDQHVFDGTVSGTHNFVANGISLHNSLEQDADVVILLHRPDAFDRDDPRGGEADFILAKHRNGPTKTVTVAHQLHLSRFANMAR

Protein RecA = target: T4, Protein RecA (Mycobacterium tuberculosis, UniProt P9WHJ3); assay: Fluorescence Cell-Free Homogeneous Dose Retest to Identify Inhibitors of RecA-Intein Splicing Activity. [Related pubchem assays (depositor defined):AID2097, AID2223, AID489010, AID492950]; assay type: functional
T4 sequence (P9WHJ3 whole entry): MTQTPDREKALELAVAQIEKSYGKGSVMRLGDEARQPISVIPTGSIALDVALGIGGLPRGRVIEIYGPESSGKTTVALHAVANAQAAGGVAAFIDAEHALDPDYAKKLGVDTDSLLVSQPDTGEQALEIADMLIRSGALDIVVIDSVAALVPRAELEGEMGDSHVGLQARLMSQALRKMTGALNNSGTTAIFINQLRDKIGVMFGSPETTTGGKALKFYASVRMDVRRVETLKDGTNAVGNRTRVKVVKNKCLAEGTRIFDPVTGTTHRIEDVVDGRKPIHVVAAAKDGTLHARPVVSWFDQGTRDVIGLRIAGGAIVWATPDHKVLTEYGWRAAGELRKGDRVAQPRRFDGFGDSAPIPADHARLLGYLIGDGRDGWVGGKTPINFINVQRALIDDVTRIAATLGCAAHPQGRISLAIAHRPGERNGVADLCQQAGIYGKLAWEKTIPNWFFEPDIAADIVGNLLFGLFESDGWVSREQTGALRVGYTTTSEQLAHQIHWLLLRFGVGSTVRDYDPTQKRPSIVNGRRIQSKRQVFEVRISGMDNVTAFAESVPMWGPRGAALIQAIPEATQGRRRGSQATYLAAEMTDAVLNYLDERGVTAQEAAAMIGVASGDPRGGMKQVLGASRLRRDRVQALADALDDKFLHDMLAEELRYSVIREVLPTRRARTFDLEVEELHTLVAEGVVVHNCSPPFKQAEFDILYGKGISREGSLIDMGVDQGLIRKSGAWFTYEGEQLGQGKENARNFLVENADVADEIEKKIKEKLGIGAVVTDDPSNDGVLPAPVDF

[5] = target: Induced myeloid leukemia cell differentiation protein Mcl-1 (Homo sapiens, UniProt Q07820); assay type: functional
BJ [6] = assay: BJ-TERT fibroblast viability loss – cell-based, RAS-independent, luminescence, dose response (AID 1933); assay type: functional; conditions: Homo sapiens
BJ [7] = assay: cells; assay type: functional, cell-based; conditions: Homo sapiens
BJ [8] = assay: BJ-TERT-LT-ST fibroblast viability loss – cell-based, RAS-independent, luminescence, dose response (AID 1935); assay type: functional; conditions: Homo sapiens;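 further: BJ fibroblasts immortalized with TERT plus LT and ST oncogenes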
[9] = DRD fibroblast viability loss – cell-based, non-viral oncogenic, luminescence, dose response (AID 1934); assay type: functional; conditions: Homo sapiens
[10] = NIH-3T3 fibroblast cytotoxicity, dose response, cytotoxicity control, cell-based, fluorescence, Alamar Blue, secondary assay (AID 2327); assay type: functional;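 further: NIH-3T3 mouse fibroblasts cultured with fluconazole at 8 µg/mL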
[11] = fluconazole-exposed Candida albicans growth modulators – fluorescence, retest, confirmation (AID 2467); assay type: functional, cell-based
Genome polyprotein = Genome polyprotein (dengue virus type 2, UniProt P29990); assay: flavivirus cap methylation enzyme inhibition – biochemical, confirmation dose response, primary screen (AID 588689); assay type: functional
[12] = P. falciparum Dd2 growth inhibitors, dose response, SYBR Green, cherry-picked samples (AID 1159567); assay type: functional, cell-based

Induced myeloid leukemia cell differentiation protein Mcl-1, sequence (Q07820 whole entry): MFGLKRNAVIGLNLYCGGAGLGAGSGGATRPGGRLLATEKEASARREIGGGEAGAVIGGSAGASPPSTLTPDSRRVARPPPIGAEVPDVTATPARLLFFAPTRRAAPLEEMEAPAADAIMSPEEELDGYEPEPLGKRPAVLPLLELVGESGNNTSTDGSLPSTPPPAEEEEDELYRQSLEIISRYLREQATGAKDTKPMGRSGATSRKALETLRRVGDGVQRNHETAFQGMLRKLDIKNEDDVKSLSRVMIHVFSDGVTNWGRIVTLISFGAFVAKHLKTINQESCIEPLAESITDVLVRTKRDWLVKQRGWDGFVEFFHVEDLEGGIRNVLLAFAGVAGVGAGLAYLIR
Genome polyprotein, sequence (P29990 2492-3391 limits assumed): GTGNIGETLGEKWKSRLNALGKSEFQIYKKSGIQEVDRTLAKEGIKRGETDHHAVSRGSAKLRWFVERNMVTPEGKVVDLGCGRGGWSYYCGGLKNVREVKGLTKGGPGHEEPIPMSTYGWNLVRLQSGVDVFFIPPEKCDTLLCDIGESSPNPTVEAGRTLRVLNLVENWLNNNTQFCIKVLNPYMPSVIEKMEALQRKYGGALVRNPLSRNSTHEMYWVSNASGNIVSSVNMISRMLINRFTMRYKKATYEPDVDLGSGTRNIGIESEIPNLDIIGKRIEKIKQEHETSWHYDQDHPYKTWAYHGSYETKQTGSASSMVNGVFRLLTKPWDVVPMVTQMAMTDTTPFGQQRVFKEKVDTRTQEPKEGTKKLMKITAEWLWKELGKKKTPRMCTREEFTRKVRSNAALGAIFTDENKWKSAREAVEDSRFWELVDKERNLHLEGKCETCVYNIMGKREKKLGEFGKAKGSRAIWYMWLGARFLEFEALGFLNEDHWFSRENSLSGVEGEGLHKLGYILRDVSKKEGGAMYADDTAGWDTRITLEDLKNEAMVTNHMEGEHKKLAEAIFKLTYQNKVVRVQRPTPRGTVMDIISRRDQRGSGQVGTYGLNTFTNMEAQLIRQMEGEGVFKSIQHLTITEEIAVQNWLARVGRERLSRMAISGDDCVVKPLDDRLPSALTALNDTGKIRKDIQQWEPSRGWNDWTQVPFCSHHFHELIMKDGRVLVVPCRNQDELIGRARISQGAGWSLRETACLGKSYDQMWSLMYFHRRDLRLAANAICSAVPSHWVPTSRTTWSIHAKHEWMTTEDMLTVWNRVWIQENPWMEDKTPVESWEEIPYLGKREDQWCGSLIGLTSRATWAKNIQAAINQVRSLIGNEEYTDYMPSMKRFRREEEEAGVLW

Compound: C=C(C)C(=O)Oc1ccc(N2C(=O)[C@@H]3C4C=CC(C4)[C@@H]3C2=O)cc1
- IC50 [1]: > 47.1 µM (inactive)
- EC50 [2]: > 53 µM (inactive)

Compound: COc1ccc(N2C(=O)C(Cl)=C(Oc3cccc(OC)c3)C2=O)cc1
- EC50 [3]: 1.84 µM (active)
- AC50 [4]: 18.9 µM (active)
- EC50 (Protein RecA): 10.7 µM (active)

Compound: CCN(c1ccc(NC(=O)COC(=O)c2cc3ccccc3oc2=O)cc1)C(C)C
- IC50 [5]: 25.3 µM (not active)

Compound: c1ccc(-c2cnnc(SCc3cn4cccnc4n3)n2)cc1
- EC50 (BJ [6]): > 150 µM (not active)
- EC50 (BJ [7]): > 150 µM (inconclusive)
- EC50 (BJ [8]): > 150 µM (inconclusive)
- EC50 [9]: 24.9 µM (active)

Compound: Cc1noc(C)c1COC(=O)c1ccccc1Oc1ccccc1
- EC50 [3]: > 260 µM (inactive)

Compound: COc1ccc(C(CC(=O)c2ccc(C)cc2)C(C#N)C#N)cc1OC (stereo unspecified)
- EC50 [3]: 5.54 µM (active)
- AC50 [4]: 11.4 µM (active)
- EC50 (Protein RecA): 4.79 µM (active)

Compound: CC(C)c1cc(N2CCC(=O)NC2=O)cc(C(=O)O)c1O
- IC50 [1]: > 47.1 µM (inactive)
- EC50 [2]: > 53 µM (inactive)

Compound: Cc1ccc2nc(NCc3ccccc3)c(C=O)c(=O)n2c1
- EC50 [3]: > 260 µM (inactive)

Compound: CCCc1nc2ccc(NC(=O)c3cccs3)cc2c(=O)n1Cc1ccccc1Cl
- EC50 [3]: > 260 µM (inactive)

Compound: CC1CCCCN1C(C(=O)O)c1ccccc1 (stereo unspecified)
- IC50 [1]: > 47.1 µM (inactive)
- EC50 [2]: > 53 µM (inactive)

Compound: CCOc1ccc(N2CC(C(=O)NCc3nnnn3-c3ccc(C)c(C)c3)CC2=O)cc1 (stereo unspecified)
- IC50 [1]: > 47.1 µM (inactive)
- EC50 [2]: > 53 µM (inactive)

Compound: CCC(C)NS(=O)(=O)c1ccc(OCC(=O)NCc2ccccn2)cc1 (stereo unspecified)
- IC50 [1]: > 47.1 µM (inactive)
- EC50 [2]: > 53 µM (inactive)

Compound: CC1CCN(c2ccc(NC(=O)Cc3ccccc3)cc2)CC1
- IC50 [5]: 5.35 µM (not active)

Compound: O=C(CCN1C(=O)/C(=C/c2ccc(Cl)cc2)SC1=S)Nc1cccnc1
- EC50 (BJ [6]): 14.9 µM (active)
- EC50 (BJ [7]): > 150 µM (not active)
- EC50 (BJ [8]): > 150 µM (not active)
- EC50 [9]: 24.7 µM (active)

Compound: Nc1ccc2c(c1Cl)C(=O)c1ccc(N)c(Cl)c1C2=O
- IC50 [5]: 2.76 µM (active)

Compound: CC(C)c1ccc2c(c1)[C@H]1OCC[C@H]1[C@@H](c1cccs1)N2
- EC50 [3]: > 260 µM (inactive)

Compound: COc1ccc(OC)c(N(CC(=O)N2CCC(C)CC2)S(=O)(=O)c2ccccc2)c1
- EC50 [3]: > 260 µM (inactive)

Compound: O=C(CSc1nnc(-c2ccco2)n1Cc1ccccc1)OC1CCCCC1
- EC50 [10]: > 150 µM (inactive)
- EC50 [11]: > 38 µM (not active)
- EC50 [3]: 35.8 µM (active)

Compound: Cc1c(-c2nnc(S)n2-c2ccc(C(F)(F)F)cc2)nnn1-c1ccccc1
- EC50 [3]: > 260 µM (inactive)

Compound: COc1cc(C(=O)NCCc2ccc(F)cc2)ccc1OCC(=O)N1CCOCC1
- EC50 [3]: > 260 µM (inactive)

Compound: CC(C)c1ccc(N(C(=O)CNC(=O)c2ccco2)C(C(=O)NC2CCCC2)c2ccncc2)cc1 (stereo unspecified)
- EC50 [3]: > 260 µM (inactive)

Compound: Cc1ccc(NS(=O)(=O)c2ccc(C(=O)Nc3nncs3)cc2)cc1
- IC50 [1]: > 47.1 µM (inactive)
- EC50 [2]: > 53 µM (inactive)

Compound: COC1=CC(=O)C(O)=C(CCCCCCC/C=C/CCCCCCCC2=C(O)C(=O)C=C(OC)C2=O)C1=O
- EC50 [10]: > 160 µM (inactive)
- EC50 [11]: > 38 µM (not active)
- AC50 [4]: 2.6 µM (active)
- EC50 (Protein RecA): 2.13 µM (active)
- IC50 (Genome polyprotein): 10.8 µM (active)

Compound: COc1ccccc1CNC(=O)CCc1nnc2ccc(NCCCN3CCCC3=O)nn12
- IC50 [1]: > 47.1 µM (inactive)
- EC50 [2]: > 53 µM (inactive)

Compound: O=C(Cc1ccccn1)N1CCCCN2[C@@H](CO)[C@@H](c3ccc(C#Cc4ccccc4)cc3)[C@@H]2C1
- AC50 [12]: 4.71 µM (active)

Compound: COc1ccc2c3c(n(C)c2c1)[C@@H](CO)N(C(=O)c1ccc(F)cc1)CC31CN(CC2CCOCC2)C1
- AC50 [12]: 12.1 µM (active)

Compound: CO[C@@H]1CN(C)C(=O)c2cc(NC(=O)Cc3ccccc3)ccc2OC[C@H](C)N(C(=O)c2ccccc2F)C[C@@H]1C
- AC50 [12]: 7.66 µM (active)

Compound: COc1ccc(C#Cc2ccc3c(c2)[C@H]2[C@H](CCN2C(=O)c2ccccn2)[C@@H](CO)N3)cc1
- AC50 [12]: 3.75 µM (active)
